Data reported in US20150289512A1, “METHOD FOR PROMOTING PLANT GROWTH” (SUMITOMO CHEMICAL COMPANY, LIMITED, priority 2012, published 2015).

Tests used:
Format in all cases: in vivo
[1] = system: Corn seeds (variety: Pioneer 120 31P41); assay: Test Example 14: growth promotion under low-temperature stress by soil drench treatment of corn; details: Zea mays, 120 h, soil drench 20 ml, low-temperature stress 5 days at 2.5° C., health score 0-5, average of 4 individuals, read-out: Relative value of score (%- untreated control plot); for change in vivo at 10 ppm: concentration tested 10 ppm; for change in vivo at 0.3 ppm: concentration tested 0.3 ppm; for change in vivo at 1 ppm: concentration tested 1 ppm
Procedure: Test for Evaluating Growth Promotion Under Low-Temperature Stress by Soil Drench Treatment of Corn
Corn seeds (variety: Pioneer 120 31P41) were seeded in a culture soil (Aisai) in a plastic pot (φ55 mm×height of 58 mm), and cultivated for 7 days at 20-25° C., an illuminance of about 5,000 lux, and a day length of 16 hours.
A DMSO solution, which contained one of the compounds 1 to 9, 16, 17, 20, 23, 24, 28 to 32, 34, 45, 48, 50, 82 and 85 of the present invention at a concentration of 1,000-fold concentration of each test concentration, was prepared, and then diluted with distilled water to obtain each test solution. After that, 20 ml of the obtained test solution was used to perform soil drench treatment on the foot of the test plants. The test plants were cultivated for 2 days under the conditions of a temperature of 27° C., a humidity of 40-80%, an illuminance of about 5,000 lux, and a day length of 16 hours. This was used as a test plot treated with the compound. A plot having undergone the soil drench treatment with 20 ml of a 0.1% DMSO aqueous solution instead of the above DMSO solution containing the compound was used as an untreated control plot.
The plants having undergone the soil drench treatment were cultivated for 5 days under the conditions of a temperature of 2.5° C., a humidity of 40-80%, an illuminance of about 5,000 lux, and a day length of 16 hours, thereby exposing to low-temperature stress. After the exposure to the low-temperature stress, the plants were cultivated for 4 days under the conditions of a temperature of 27° C., a humidity of 40-80%, an illuminance of about 5,000 lux, and a day length of 16 hours.
After the cultivation, the health of each plant was scored according to the following evaluation index.
5: 4 or more leaves in which ⅔ or more of the area was healthy
4: 3 leaves in which ⅔ or more of the area was healthy
3: 2 leaves in which ⅔ or more of the area was healthy
2: 1 leaf in which ⅔ or more of the area was healthy
1: No leaf in which ⅔ or more of the area was healthy
An average of the scores of the health of 4 individuals was determined.

[2] = system: Rice (variety: Nipponbare); assay: Test Example 1: promotion of root growth by hydroponics of rice, 10 ppm; details: Oryza sativa, hydroponic solution containing the test compound at 10 ppm, average of 4 or 5 individuals, read-out: Relative value of length of seminal root (%-untreated control plot)
Procedure, shortened: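 Surface-sterilised seeds germinated 3 days in the dark at 28° C in hydroponic solution with compound at 10 ppm, then grown 3 days hydroponically with compound at 10 ppm (26° C, 4,000 lux, 16 h day, 50% humidity). Seminal root length measured by image analysis, averaged over 4 or 5 plants per plot.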

Nicotiana benthamiana [3] = assay: Test Example 5: growth promotion under low-temperature stress by hydroponics of Nicotiana benthamiana, 1 ppm; details: 1 ppm in medium, low-temperature stress 7 days at 1.5±1.0° C., green leaf area 3 days later, equation (1)
Procedure: (§1) Test for Evaluating Growth Promotion Under Low-Temperature Stress by Hydroponics of Nicotiana benthamiana
A DMSO solution, which contained one of the compounds 2, 4, 5, 6, 11, 12, 17, 20, 21, 28, 30, 34, 36, 37, 51, 52, 53, 55, 56, 58, 59, 60, 64, 65, 66, 68, 69, 70, 74, 77, 82, 83, 84, 86 and 87 of the present invention at a concentration of 1,000 ppm, was prepared. The DMSO solution of the compound of the present invention was added at a volume ratio of 1/1,000 to the Murashige•Scoog medium of a ½-fold concentration (a medium containing 2.3 g of mixed salts for the Murashige•Scoog medium (manufactured by Wako Pure Chemical Industries, Ltd.), 200 mg of Myo-inositol (manufactured by Sigma-Aldrich Co. LLC.), 2 mg of nicotinic acid (manufactured by Wako Pure Chemical Industries, Ltd.), 2 mg of pyridoxine hydrochloride (manufactured by Wako Pure Chemical Industries, Ltd.), 20 mg of thiamine hydrochloride (manufactured by Wako Pure Chemical Industries, Ltd.), 20 g of sucrose (manufactured by Wako Pure Chemical Industries, Ltd.), and 1 g of MES (manufactured by DOJINDO LABORATORIES) per 1 L of water and having pH adjusted to 5.8), thereby preparing a medium containing the compound of the present invention at a concentration of 1 ppm.
(§2) Seeds of Nicotiana benthamiana were seeded in the 5 μL of the medium and cultured overnight at 22° C. Thereafter, 45 μL of the medium containing the compound of the present invention at a concentration of 1 ppm was added thereto, and the seeds are cultured for 7 days at 22° C., an illuminance of 4,000 lux, and a day length of 16 hours, and the nursery plants raised from the Nicotiana benthamiana were treated with the compound. Moreover, instead of the above medium, a test plot, which was obtained by performing the same treatment by using a medium prepared by adding DMSO to the Murashige•Scoog medium of ½-fold concentration at a volume ratio of 1/1,000, was used as a control plot not treated with the compound.
(§3) The nursery plants of the Nicotiana benthamiana treated with the compound were subjected to low-temperature treatment by being cultivated for 7 days at 1.5±1.0° C., an illuminance of 2,000 lux, and a day length of 16 hours.
The nursery plants of the Nicotiana benthamiana having undergone the low-temperature stress treatment were cultured for 3 days at 22° C., an illuminance of 4,000 lux, and a day length of 16 hours. Thereafter, the area of green leaf was quantified by Scanalyzer HTS (manufactured by LemnaTec GmbH). Moreover, the value of the control plot not treated with the compound that had not yet been subjected to the low-temperature stress treatment was measured in the same manner. A value of a relative leaf area was calculated based on the following equation (1), and if the value of a relative leaf area was 5 or greater, the compound was evaluated to have a mitigating effect. As a result of the evaluation, it was confirmed that when the plant was treated with one of the compounds 2, 4, 5, 6, 11, 12, 17, 20, 21, 28, 30, 34, 36, 37, 51, 52, 53, 55, 56, 58, 59, 60, 64, 65, 66, 68, 69, 70, 74, 77, 82, 83, 84, 86 and 87 of the present invention at 1 ppm, the value of a relative leaf area was 5 or greater, compared to the area of green leaf of the control plot not treated with compound. Accordingly, it was confirmed that the treatment using the compound of the present invention brings about a growth promotion effect.
(§4) Relative leaf area=100*(a green area of a plot treated with the compound of the present invention−a green area of a control plot not treated with the compound of the present invention)/(a green area of a control plot not treated with the compound of the present invention that has not yet been subjected to low-temperature stress treatment−a green area of a control plot not treated with the compound of the present invention) Equation (1): […]

[4] = system: Rice (variety: Nipponbare); assay: Test Example 3: promotion of root growth by hydroponics of rice, 0.1 ppm; details: Oryza sativa, hydroponic solution containing the test compound at 0.1 ppm, average of 4 or 5 individuals, read-out: Relative value of length of seminal root (%-untreated control plot)
Procedure, shortened: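 Surface-sterilised Nipponbare seeds were germinated 3 days in the dark at 28 °C in ¼-strength Hoagland solution containing 0.1 ppm compound; DMSO-only solution served as control. Seedlings were then grown 3 days hydroponically at 26 °C, 4,000 lux, 16 h day. Seminal root length was measured and averaged over 4–5 plants.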

Nicotiana benthamiana [5] = assay: Test Example 6: growth promotion under low-temperature stress by hydroponics of Nicotiana benthamiana, 0.1 ppm; details: 0.1 ppm in medium, low-temperature stress 7 days at 1.5±1.0° C., green leaf area 3 days later, equation (1)
Procedure: as §1
A DMSO solution, which contained one of the compounds 3, 7, 14, 16, 36, 39, 43, 45, 50, 52, 53, 54, 56, 57, 62, 63, 64, 65, 68, 69, 70, 71, 73, 74, 76, 77, 79, 80, 81, 84, 85, 86 and 87 of the present invention at a concentration of 100 ppm, was prepared. The DMSO solution of the compound of the present invention was added at a volume ratio of 1/1,000 to the Murashige•Scoog medium of a ½-fold concentration for the Murashige•Scoog medium (a medium containing 2.3 g of mixed salts (manufactured by Wako Pure Chemical Industries, Ltd.), 200 mg of Myo-inositol (manufactured by Sigma-Aldrich Co. LLC.), 2 mg of nicotinic acid (manufactured by Wako Pure Chemical Industries, Ltd.), 2 mg of pyridoxine hydrochloride (manufactured by Wako Pure Chemical Industries, Ltd.), 20 mg of thiamine hydrochloride (manufactured by Wako Pure Chemical Industries, Ltd.), 20 g of sucrose (manufactured by Wako Pure Chemical Industries, Ltd.), and 1 g of MES (manufactured by DOJINDO LABORATORIES) per 1 L of water and having pH adjusted to 5.8), thereby preparing a medium containing the compound of the present invention at a concentration of 0.1 ppm.
as §2, with “concentration of 0.1 ppm was” for “concentration of 1 ppm was”, “seeds are cultivated for 7” for “seeds are cultured for 7”, “the above medium a test” for “the above medium, a test”
as §3
The nursery plants of the Nicotiana benthamiana having undergone the low-temperature stress treatment were cultivated for 3 days at 22° C., an illuminance of 4,000 lux, and a day length of 16 hours. Thereafter, the area of green leaf was quantified by Scanalyzer HTS (manufactured by LemnaTec GmbH). Moreover, the value of the control plot not treated with the compound that had not yet been subjected to the low-temperature stress treatment was measured in the same manner. A value of a relative leaf area was calculated based on the following equation (1), and if the value of a relative leaf area was 5 or greater, the compound was evaluated to have a mitigating effect. As a result of the evaluation, it was confirmed that when the plant was treated with one of the compounds 3, 7, 14, 16, 36, 39, 43, 45, 50, 52, 53, 54, 56, 57, 62, 63, 64, 65, 68, 69, 70, 71, 73, 74, 76, 77, 79, 80, 81, 84, 85, 86 and 87 of the present invention at 0.1 ppm, the value of a relative leaf area was 5 or greater, compared to the area of green leaf of the control plot not treated with compound. Accordingly, it was confirmed that the treatment using the compound of the present invention brings about a growth promotion effect.
as §4, with “treatment−green” for “treatment−a green”

Structure (SMILES)	change in vivo at 10 ppm [1]	change in vivo at 10 ppm [2]	relative leaf area (% of untreated control) at 1 ppm (Nicotiana benthamiana [3])	change in vivo at 0.3 ppm [1]	change in vivo at 0.1 ppm [4]	relative leaf area (% of untreated control) at 0.1 ppm (Nicotiana benthamiana [5])	change in vivo at 1 ppm [1]
CCOC(=O)c1cc2cc(C(F)(F)F)ccc2o1 [Compound 4, ethyl 5-trifluorometethylbenzofuran-2-carboxylate]	> 5%	> 5%	≥ 5%	–	–	–	–
O=C(O)c1nc2cc(C(F)(F)F)ccc2[nH]1 [Compound 20, 5-(trifluoromethyl)-benzimidazole-2-carboxylic acid]	–	–	≥ 5%	> 5%	> 5%	–	–
COc1ccc(NC(=O)c2cc3cc(C(F)(F)F)ccc3o2)c(OC)c1 [Compound 5, N-(2,4-dimethoxyphenyl)-5-trifluoromethylbenzofuran-2-carboxamide]	–	> 5%	≥ 5%	> 5%	–	–	–
O=C(O)c1cc2cc(C(F)(F)F)ccc2o1 [Compound 2, 5-trifluoromethylbenzofuran-2-carboxylic acid]	> 5%	–	≥ 5%	–	> 5%	–	–
O=C(O)c1cc2cc(C(F)(F)F)ccc2[nH]1 [Compound 7, 5-trifluoromethylindole-2-carboxylic acid]	–	–	–	–	> 5%	≥ 5%	> 5%
COC(=O)c1nc2ccccc2o1 [Compound 16, methyl benzoxazole-2-carboxylate]	–	–	–	–	> 5%	≥ 5%	> 5%
